# Legend:
# [1] = Metal ion selectivity of fluorescence response; assay type: physicochemical; settings: 1 μM sensor, 10 μM TPEN; against Na^+, K^+, Ca^2+, Mg^2+, Fe^2+, Ni^2+, Co^2+, Cu^2+, Mn^2+
# Protocol: To study the metal selectivity, the fluorescence of ZIGIR-1 (1 μM) or ZIGIR-2 (1 μM) was measured in the presence of 10 μM TPEN and an excess of metal ion including 1 mM KCl, 1 mM NaCl, 1 mM CaSO4, 1 mM MgSO4, 15 μM MnSO4, 15 μM FeSO4, 15 μM NiSO4, 15 μM CoCl2, 15 μM CuSO4, 15 μM CdSO4 or 15 μM ZnSO4. The emission intensity was normalized to that of 15 μM ZnSO4 (100%).
# [2] = system: T47D human breast cancer cells, H1299 lung carcinoma and HEK293 human embryonic kidney cells; test: ZIGIR-2 imaging in cells not known to contain Zn^2+ rich secretory granules; assay type: cell-based
# Protocol: To better understand the granular labeling specificity of ZIGIR-2, a number of mammalian cells were imaged that are not known to contain Zn^2+ rich secretory granules. These included T47D human breast cancer cells, H1299 lung carcinoma and HEK293 human embryonic kidney cells. […] However, after adding Zn/pyrithione, distinct ZIGIR-2 positive spots emerged in these cells (FIG. 8B). Subsequently, LysoTracker Green (LTG), an acidotropic fluorescent tracer based on BODIPY dye, was added to label acidic granules.
# MIN-6 β cells were cultured as previously described (Li et al., 2011). HEK293 cells were cultured in DMEM medium supplemented with 10% FBS and 1% Penicillin/Streptomycin. T47D cells were cultured in RPMI-1640 medium supplemented with 10% FBS, 0.5% non-essential amino acids, 1 mM sodium pyruvate, 10 μg/mL geneticin and 0.01 mg/mL insulin. H1299 cells were cultured in RPMI-1640 medium supplemented with 10% FBS. All cells were maintained at 37° C. with 5% CO2. For cell imaging, cells were seeded in 35-mm petri dishes with glass bottoms (MatTek) and cultured for ˜24 hours to reach ˜50% confluence. Prior to labeling, cells were washed with a secretion assay buffer (SAB) containing 114 mM NaCl, 4.7 mM KCl, 1.2 mM KH2PO4, 2.5 mM CaCl2, 1.16 mM MgSO4, 3 mM glucose, and 20 mM Hepes (pH 7.4). […] ZIGIR colocalization with LysoTracker Green was analyzed and quantified with JACoP plugin of ImageJ.
# [3] = system: primary mouse islet cells; test: Flow cytometry analysis and FACS of mouse islet cells labeled with ZIGIR-2 and Ex4-Cy5; assay type: cell-based
# Text: Among islet endocrine cells, β-cells have long been known to contain a high level of total Zn^2+ in their secretory granules. However, it remains unclear how Zn^2+ activities differ among different types of secretory granules including the glucagon granule and the somatostatin granule. To address the question, the inventors combined ZIGIR-2 and flow cytometry to analyze the granular Zn^2+ activity in primary mouse islet cells. To facilitate distinguishing different endocrine cells, they labeled mouse islets with a β-cell marker, a Cy5 dye conjugate of Exendin-4 peptide (Ex4) (Scheme 3). Ex4 is a high affinity ligand of the glucagon like peptide 1 receptor (GLP-1R). Since GLP-1R is highly expressed in mouse islet β-cells,^46 fluorescently labeled conjugates of Ex4 are rapidly internalized into β-cells through receptor-mediated endocytosis to mark β-cells.^36, 47 After labeling mouse islets with Ex4-Cy5, the inventors dispersed the islets into single cells and labeled them with ZIGIR-2 (FIG. 10A). […] To identify each subset of cells, the inventors isolated them by FACS and analyzed the sorted cells by immunofluorescence using antibodies against insulin, glucagon, and somatostatin. The immunofluorescence result confirmed that P1 and P2 subsets were essentially pure β-cells (99±0.3%, N=3) and α-cells (98±0.5%, N=3), respectively (FIG. 10C). […] The remaining ˜20% of cells in P3 and most cells in P4 were not stained by any of the three hormone antibodies. These cells likely represented rare […], islet endothelial cells or lymphoid cells, and residual exocrine cells.
# Mouse islets were isolated as previously described (Li et al., 2011) by perfusing Collagenase P (Roche, 1.4 mg/mL in HBSS with 5 mM glucose) through the common bile duct. Following a 15 min digestion at 37° C., the pancreas digestion was washed twice with HBSS by centrifugation and the islets were hand-picked under a dissection scope. Isolated islets were cultured 2-4 hours in RPMI-1640 medium (GIBCO, #11875-093) supplemented with 10% (v/v) FBS, 2.0 mM sodium-pyruvate, 100 U/mL penicillin and […] at 37° C. in 5% CO2. To distinguish islet β-cells from non-β cells, islets were labeled with a fluorescently labeled exendin-4 derivative as previously described (Kim et al., 2017). Briefly, Ex4-Cy5 (100 nM) was added to the culture medium 2 hours before islet dispersion. ZIGIR labeling was carried out subsequently after islet dispersion. Mouse islets were dispersed with 0.05% Trypsin solution in DPBS at 37° C. for 15 min. The dispersed islet cells were incubated with 0.5 μM ZIGIR-1 (or ZIGIR-2) at 37° C. for 15 min in the cell sorting buffer (SAB Buffer containing 3 mM glucose, 0.5% BSA and 0.1 mg/mL DNase I (Roche)). The cells were then washed twice with ice-cold SAB and resuspended in the cell sorting buffer. The labeled cells were analyzed by flow cytometry on a LSRFortessa cell analyzer (BD Biosciences). DAPI (200 ng/mL) was added to the cell suspension prior to flow cytometry to distinguish live cells (DAPI negative) from dead cells (DAPI positive). Only live cells were analyzed.
# [4] = ZIGIR-2 and Ex4-Cy5 labeling, N=3
smiles,measurement,setting,value
CN(C)c1ccc2c(-c3ccc(NCCN(CCc4ccccn4)Cc4ccccn4)cc3C(=O)[O-])c3ccc(=[N+](C)C)cc-3oc2c1 [ZIGIR-2],selectivity of fluorescence response for Zn^2+,[1],selective for Zn^2+
same,overlap of ZIGIR-2 positive puncta with LysoTracker Green marked granules,[2]; after Zn/pyrithione,overlapped remarkably well
same,fluorescence signal in basal SAB buffer,[2]; same dye loading and imaging conditions as MIN6 cells,barely any ZIGIR-2 fluorescence signal was detected
same,median fluorescence intensity (MFI) in α-cells versus δ-cells,[3],nearly an order of magnitude stronger
same,"median fluorescence intensity (MFI) in α-cells, weaker than in β-cells",[3],about 5 times
same,α-cells in sorted P2 subset,[3]; [4],98±0.5%
same,β-cells in sorted P1 subset,[3]; [4],99±0.3%
same,δ-cells in sorted P3 subset,[3]; [4],81±4.8%
same,ability to resolve islet cells into subsets by granular Zn^2+ activity,[3]; compared with commercially available Zn^2+ sensors,able to resolve islet cells into distinct subsets

# — patent US11649228B2, “Zinc indicators for cellular imaging” (The Board of Regents of the University of Texas System, priority 2018, dated 2023)
